Experimental data as given in ChEMBL document CHEMBL1687711.
The source made the active and inactive calls. No cut-off for these calls is given here.

Columns and labels:
Aspergillus fumigatus [1] = assay: Antifungal activity against Aspergillus fumigatus AF4215 hyphae assessed as hyphal damage at 0.1 ug/ml after 20 hrs by XTT assay; assay type: functional, organism-based
THP-1 [2] = assay: Increase in NF-kappaB-mediated TLR2 mRNA expression in human THP1 cells co-incubated with Aspergillus fumigatus hyphae at 0.5 ug/ml after 6 hrs by RT-PCR analysis; assay type: cell-based
THP-1 [3] = assay: Increase in NF-kappaB-mediated TLR2 protein expression in human THP1 cells at 0.5 ug/ml after 6 hrs by Western blot analysis; assay type: cell-based
THP-1 [4] = assay: Effect on TLR4 protein expression in human THP1 cells at 0.5 ug/ml after 6 hrs by Western blot analysis; assay type: functional, cell-based
THP-1 [5] = assay: Increase in NF-kappaB-mediated TLR2 mRNA expression in human THP1 cells at 0.5 ug/ml after 6 hrs by RT-PCR analysis; assay type: cell-based
Aspergillus fumigatus [6] = assay: Antifungal activity against Aspergillus fumigatus AF4215 hyphae co-incubated with human monocytes assessed as hyphal damage at 0.1 ug/ml after 20 hrs by XTT assay; assay type: functional, organism-based
Aspergillus fumigatus [7] = assay: Antifungal activity against Aspergillus fumigatus AF4215 hyphae co-incubated with monocytes assessed as hyphal damage at 0.1 ug/ml after 6 hrs by XTT assay; assay type: functional, organism-based
THP-1 [8] = assay: Effect on TLR4 mRNA expression in human THP1 cells at 0.5 ug/ml after 6 hrs by RT-PCR analysis; assay type: functional, cell-based
THP-1 [9] = assay: Increase in NF-kappaB-mediated TNF-alpha mRNA expression in human THP1 cells co-incubated with Aspergillus fumigatus hyphae at 0.5 ug/ml after 6 hrs by RT-PCR analysis; assay type: cell-based
THP-1 [10] = assay: Effect on TLR4 protein expression in human THP1 cells co-incubated with Aspergillus fumigatus hyphae at 0.5 ug/ml after 6 hrs by Western blot analysis; assay type: functional, cell-based
THP-1 [11] = assay: Increase in NF-kappaB-mediated TLR2 protein expression in human THP1 cells co-incubated with Aspergillus fumigatus hyphae at 0.5 ug/ml after 6 hrs by Western blot analysis; assay type: cell-based
Aspergillus fumigatus [12] = assay: Antifungal activity against Aspergillus fumigatus AF4215 hyphae co-incubated with human THP1 cells assessed as hyphal damage at 0.1 ug/ml after 6 hrs by XTT assay; assay type: functional, organism-based; conditions: THP-1
THP-1 [13] = assay: Increase in NF-kappaB-mediated TNF-alpha mRNA expression in human THP1 cells at 0.5 ug/ml after 6 hrs by RT-PCR analysis; assay type: cell-based
THP-1 [14] = assay: Effect on TLR4 mRNA expression in human THP1 cells co-incubated with Aspergillus fumigatus hyphae at 0.5 ug/ml after 6 hrs by RT-PCR analysis; assay type: functional, cell-based

`C[C@@H](c1ncncc1F)[C@](O)(Cn1cncn1)c1ccc(F)cc1F` was tested. Which Activity (Aspergillus fumigatus [1]) did it give?
Its Activity is “Active”.

What about the Activity (THP-1 [2]) of the same molecule?
The Activity was “Active”.

What about the Activity (THP-1 [3]) of the same molecule?
Its Activity is “Active”.

What about the Activity (THP-1 [4]) of the same molecule?
Its Activity is “inactive”.

What about the Activity (THP-1 [5]) of the same molecule?
Its Activity is “Active”.

What about the Activity (Aspergillus fumigatus [6]) of the same molecule?
The Activity was “Active”.

What about the Activity (Aspergillus fumigatus [7]) of the same molecule?
Its Activity is “Active”.

What about the Activity (THP-1 [8]) of the same molecule?
Its Activity is “inactive”.

What about the Activity (THP-1 [9]) of the same molecule?
Its Activity is “Active”.

And the Activity (THP-1 [10])?
The Activity was “inactive”.

And the Activity (THP-1 [11])?
The Activity was “Active”.

What about the Activity (Aspergillus fumigatus [12]) of the same molecule?
The Activity was “Active”.

What about the Activity (THP-1 [13]) of the same molecule?
Its Activity is “Active”.

What about the Activity (THP-1 [14]) of the same molecule?
The Activity was “inactive”.
